± gives the expanded uncertainty stated by the source.
Conditions: Liquid, Closed cell (Static) method

| SMILES | vapor or sublimation pressure (293.15 K) [kPa] | vapor or sublimation pressure (303.15 K) [kPa] | vapor or sublimation pressure (313.15 K) [kPa] |
| --- | --- | --- | --- |
| C=C(F)C(F)(F)F [2,3,3,3-tetrafluoro-1-propene] | 591.5 ± 3.5 | 783.6 ± 3.8 | 1018.9 ± 4.3 |
| CC(F)(Cl)C(F)(F)F (stereo unspecified) [2-chloro-1,1,1,2-tetrafluoropropane] | 128.3 ± 3 | 181.6 ± 3.1 | 247.6 ± 3.1 |
